Source: patent publication US10308644B2, “Heterocyclic compounds as immunomodulators” (Incyte Corporation, priority 2016, dated 2019)

Target: PD-1/PD-L1 (Homo sapiens (Human), UniProt Q9NZQ7)
Test: PD-1/PD-L1 Homogeneous Time-Resolved Fluorescence (HTRF) Binding Assay
Conditions: recombinant human PD-1 (3 nM) and PD-L1 (10 nM), 25° C., PBS pH 7.4
In short: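 Fc-tagged human PD-1 (25-167, 3 nM) and His-tagged PD-L1 (19-238, 10 nM) preincubated with inhibitor 40 min in PBS pH 7.4, 0.05% Tween-20, 0.1% BSA, 1% DMSO, 25 °C. Binding detected by HTRF (Eu anti-IgG/APC anti-His, 665/620 nm) after 60 min; IC50 from percent control activity.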

PD-1/PD-L1, sequence (Q9NZQ7 19-238): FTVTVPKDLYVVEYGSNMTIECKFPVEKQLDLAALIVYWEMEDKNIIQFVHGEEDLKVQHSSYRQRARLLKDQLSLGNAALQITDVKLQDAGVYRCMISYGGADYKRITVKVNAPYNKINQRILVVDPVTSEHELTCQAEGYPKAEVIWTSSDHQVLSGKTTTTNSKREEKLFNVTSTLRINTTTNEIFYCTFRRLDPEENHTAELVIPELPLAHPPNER

IC50 [nM] | SMILES
≤ 10 | Cc1c(-c2nc3c(o2)CN(C(=O)CN2CC[C@@H](O)C2)C3)cccc1-c1cccc(-c2nc3cc(CN4CC[C@@H](C(=O)O)C4)cc(C#N)c3o2)c1C [Example 126, (R)-1-((7-cyano-2-(3′-(5-(2-((R)-3-hydroxypyrrolidin-1-yl)acetyl)-5,6-dihydro-4H-pyrrolo[3,4-d]oxazol-2-yl)-2,2′-dimethyl-[1,1′-biphenyl]-3-yl)benzo[d]oxazol-5-yl)methyl)pyrrolidine-3-carboxylic acid]
≤ 10 | Cc1c(-c2nc3c(o2)CN(C(=O)CN2CC(O)C2)C3)cccc1-c1cccc(-c2nc3cc(CN4CC[C@@H](C(=O)O)C4)cc(C#N)c3o2)c1C [Example 127, (R)-1-((7-cyano-2-(3′-(5-(2-(3-hydroxyazetidin-1-yl)acetyl)-5,6-dihydro-4H-pyrrolo[3,4-d]oxazol-2-yl)-2,2′-dimethyl-[1,1′-biphenyl]-3-yl)benzo[d]oxazol-5-yl)methyl)pyrrolidine-3-carboxylic acid]
≤ 10 | Cc1c(-c2nc3c(o2)CN(C(=O)CN2CC[C@H](O)C2)C3)cccc1-c1cccc(-c2nc3cc(CN4CC[C@@H](C(=O)O)C4)cc(C#N)c3o2)c1C [Example 128, (R)-1-((7-cyano-2-(3′-(5-(2-((S)-3-hydroxypyrrolidin-1-yl)acetyl)-5,6-dihydro-4H-pyrrolo[3,4-d]oxazol-2-yl)-2,2′-dimethyl-[1,1′-biphenyl]-3-yl)benzo[d]oxazol-5-yl)methyl)pyrrolidine-3-carboxylic acid]
≤ 10 | Cc1c(-c2nc3c(o2)CN(C(=O)CN2CC(C)(O)C2)C3)cccc1-c1cccc(-c2nc3cc(CN4CC[C@@H](C(=O)O)C4)cc(C#N)c3o2)c1C [Example 129, (R)-1-((7-cyano-2-(3′-(5-(2-(3-hydroxy-3-methylazetidin-1-yl)acetyl)-5,6-dihydro-4H-pyrrolo[3,4-d]oxazol-2-yl)-2,2′-dimethyl-[1,1′-biphenyl]-3-yl)benzo[d]oxazol-5-yl)methyl)pyrrolidine-3-carboxylic acid]
≤ 10 | Cc1c(-c2nc3c(o2)CN(C(=O)CN2CCC2)C3)cccc1-c1cccc(-c2nc3cc(CN4CC[C@@H](C(=O)O)C4)cc(C#N)c3o2)c1C [Example 130, (R)-1-((2-(3′-(5-(2-(azetidin-1-yl)acetyl)-5,6-dihydro-4H-pyrrolo[3,4-d]oxazol-2-yl)-2,2′-dimethyl-[1,1′-biphenyl]-3-yl)-7-cyanobenzo[d]oxazol-5-yl)methyl)pyrrolidine-3-carboxylic acid]
≤ 10 | Cc1c(-c2nc3c(o2)CN(C(=O)CN2CC[C@H](C(=O)O)C2)C3)cccc1-c1cccc(-c2nc3cc(CN4CC[C@@H](O)C4)cc(C#N)c3o2)c1C [Example 131, (S)-1-(2-(2-(3′-(7-cyano-5-(((R)-3-hydroxypyrrolidin-1-yl)methyl)benzo[d]oxazol-2-yl)-2,2′-dimethyl-[1,1′-biphenyl]-3-yl)-4,6-dihydro-5H-pyrrolo[3,4-d]oxazol-5-yl)-2-oxoethyl)pyrrolidine-3-carboxylic acid]
≤ 10 | Cc1c(-c2nc3c(o2)CN(C(=O)CN2CC[C@@H](C(=O)O)C2)C3)cccc1-c1cccc(-c2nc3cc(CN4CC[C@@H](O)C4)cc(C#N)c3o2)c1C [Example 132, (R)-1-(2-(2-(3′-(7-cyano-5-(((R)-3-hydroxypyrrolidin-1-yl)methyl)benzo[d]oxazol-2-yl)-2,2′-dimethyl-[1,1′-biphenyl]-3-yl)-4,6-dihydro-5H-pyrrolo[3,4-d]oxazol-5-yl)-2-oxoethyl)pyrrolidine-3-carboxylic acid]
≤ 10 | Cc1c(-c2nc3c(o2)CN(C(=O)CN2CCCC[C@H]2C(=O)O)C3)cccc1-c1cccc(-c2nc3cc(CN4CC[C@@H](O)C4)cc(C#N)c3o2)c1C [Example 133, (S)-1-(2-(2-(3′-(7-cyano-5-(((R)-3-hydroxypyrrolidin-1-yl)methyl)benzo[d]oxazol-2-yl)-2,2′-dimethyl-[1,1′-biphenyl]-3-yl)-4,6-dihydro-5H-pyrrolo[3,4-d]oxazol-5-yl)-2-oxoethyl)piperidine-2-carboxylic acid]
≤ 10 | Cc1c(Nc2nccc3cc(CN4CCCC4)cnc23)cccc1-c1cccc(-c2nc3cc(CN4CC[C@@H](C(=O)O)C4)cc(C#N)c3o2)c1C [Example 134, (R)-1-((7-cyano-2-(2,2′-dimethyl-3′-(3-(pyrrolidin-1-ylmethyl)-1,7-naphthyridin-8-ylamino)biphenyl-3-yl)benzo[d]oxazol-5-yl)methyl)pyrrolidine-3-carboxylic acid]
≤ 10 | Cc1c(Nc2nccc3cc(CN4CCC4)cnc23)cccc1-c1cccc(-c2nc3cc(CN4CC[C@@H](C(=O)O)C4)cc(C#N)c3o2)c1C [Example 135, (R)-1-((2-(3′-(3-(azetidin-1-ylmethyl)-1,7-naphthyridin-8-ylamino)-2,2′-dimethylbiphenyl-3-yl)-7-cyanobenzo[d]oxazol-5-yl)methyl)pyrrolidine-3-carboxylic acid]
≤ 10 | Cc1c(Nc2nccc3cc(CN4CC(O)C4)cnc23)cccc1-c1cccc(-c2nc3cc(CN4CC[C@@H](C(=O)O)C4)cc(C#N)c3o2)c1C [Example 136, (R)-1-((7-cyano-2-(3′-(3-((3-hydroxyazetidin-1-yl)methyl)-1,7-naphthyridin-8-ylamino)-2,2′-dimethylbiphenyl-3-yl)benzo[d]oxazol-5-yl)methyl)pyrrolidine-3-carboxylic acid]
≤ 10 | Cc1c(Nc2nccc3cc(CN4CC[C@@](C)(O)C4)cnc23)cccc1-c1cccc(-c2nc3cc(CN4CC[C@@H](C(=O)O)C4)cc(C#N)c3o2)c1C [Example 137, (R)-1-((7-cyano-2-(3′-(3-(((R)-3-hydroxy-3-methylpyrrolidin-1-yl)methyl)-1,7-naphthyridin-8-ylamino)-2,2′-dimethylbiphenyl-3-yl)benzo[d]oxazol-5-yl)methyl)pyrrolidine-3-carboxylic acid]
≤ 10 | Cc1c(Nc2nccc3cc(CN4CC[C@](C)(O)C4)cnc23)cccc1-c1cccc(-c2nc3cc(CN4CC[C@@H](C(=O)O)C4)cc(C#N)c3o2)c1C [Example 138, (R)-1-((7-cyano-2-(3′-(3-(((S)-3-hydroxy-3-methylpyrrolidin-1-yl)methyl)-1,7-naphthyridin-8-ylamino)-2,2′-dimethylbiphenyl-3-yl)benzo[d]oxazol-5-yl)methyl)pyrrolidine-3-carboxylic acid]
≤ 10 | Cc1c(Nc2ncnc3cc(CN4CC[C@@H](O)C4)cnc23)cccc1-c1cccc(-c2nc3cc(CN4CC[C@@H](C(=O)O)C4)cc(C#N)c3o2)c1C [Example 139, (R)-1-((7-cyano-2-(3′-(7-(((R)-3-hydroxypyrrolidin-1-yl)methyl)pyrido[3,2-d]pyrimidin-4-ylamino)-2,2′-dimethylbiphenyl-3-yl)benzo[d]oxazol-5-yl)methyl)pyrrolidine-3-carboxylic acid]
≤ 10 | Cc1c(Nc2nccc3cc(C(C)N4CC[C@@H](O)C4)cnc23)cccc1-c1cccc(-c2nc3cc(CN4CC[C@@H](C(=O)O)C4)cc(C#N)c3o2)c1C (stereo partly drawn) [Example 140, (3R)-1-((7-cyano-2-(3′-(3-(1-((R)-3-hydroxypyrrolidin-1-yl)ethyl)-1,7-naphthyridin-8-ylamino)-2,2′-dimethylbiphenyl-3-yl)benzo[d]oxazol-5-yl)methyl)pyrrolidine-3-carboxylic acid]
